Data on 10 molecules can be found in ChEMBL document CHEMBL1201862, “PubChem BioAssay data set” (2004).

Test [1] is described as follows: HIV-1 AD8 envelope cell-cell fusion blockers – cherry-pick, dose response (AID 652062).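 Also: luciferase signal from cell-cell fusion driven by HIV-1 clade B AD8 Env; potency is for inhibitors of fusion seen as a drop in luminescence.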 Type of test: functional, cell-based.
The nature of test [2]: viability loss in CEM21 cells – cell-based, CellTiter-Glo luminescence, cherry-picked, cytotoxicity control for viral fusion inhibitor project, dose response (AID 652042).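 Also: potency for signal decrease meaning cytotoxicity.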 It counts as functional. For orientation: Cellular ATP, detected with luciferase, serves as a proxy for viable cell number.
Test [3] can be described thus: viability loss in CEM21 cells – cell-based, plate reader, dry powder, cytotoxicity control, dose response (AID 687026). It counts as functional.
Test [4] is described as follows: inhibition of Env-driven cell fusion – HIV entry, plate reader, dry powder, dose response (AID 687023). It counts as functional, cell-based.
Test [5] in a line: off-target signal loss in HeLa-CEM21 co-culture – HeLa F-luc CTL cells, cherry-picked, counter-screen for HIV-1 Env fusion inhibitor project, dose response (AID 652040).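 Also: potency for signal decrease marking cytotoxic or nonspecific inhibition.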 It counts as functional, cell-based. Background: The purpose of a counterscreen is to sort out artefacts and off-target activity.
Test [6] can be described thus: blockers of HIV-1 envelope-mediated cell-cell fusion – cherry-pick, dose response (AID 652057). Type of test: functional, cell-based.
The nature of test [7]: reduction of Shn3 3'UTR-driven luciferase in osteoblasts – cell-based, Clone20 osteoblasts, firefly luciferase, cherry-picked, dose response (AID 624132).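 Also: firefly luciferase luminescence from reporter carrying the Shn3 3'UTR in osteoblasts.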 It counts as functional.
Test [8] has as its target Matrix metalloproteinase-14 (Homo sapiens, UniProt P50281). The experiment in a line: Dose Response confirmation of uHTS hits for a small molecule inhibitors of MT1-MMP activation in a fluorescence assay set 1. Type of test: functional.
Test [9] in a line: loss of viability in HepG2 cells – cell-based, CellTiter-Glo, cherry-picked, cytotoxicity control for Shn3 inhibitor project, dose response (AID 624134). Type of test: functional.
Test [10] is described as follows: non-specific 3'UTR reporter inhibition in Clone20-Shn3RL – cell-based, Renilla luciferase, cherry-picked, counter-screen for Shn3 inhibitor project, dose response (AID 624133). Type of test: functional.
Test [11] in a line: Shn3 3'UTR reporter signal decrease – cell-based, Clone20 osteoblasts, firefly luciferase, cherry-pick, set 2, Schnurri-3 inhibitor project, dose response (AID 720490).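 Also: actives lower the luminescence signal as inhibitors.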 Type of test: functional.
The next test concerns the target Albumin (Bos taurus, UniProt P02769). The test is described as follows: Counterscreen for inhibitors of T-cell receptor (TCR)-CD3 interaction: Fluorescence-based biochemical high throughput dose response assay to identify inhibitors of T-cell receptor (TCR)-CD3 interaction using a TAMRA-labeled BSA probe. It counts as functional.
A further test has as its target Nonstructural protein 1 (Influenza A virus, UniProt Q194T2). Type of test: functional, Influenza A virus (A/California/07/2009(H1N1)).
Test [12] deals with T1, Oxysterols receptor LXR-beta (Homo sapiens, UniProt P55055).
T1 sequence (P55055 whole entry): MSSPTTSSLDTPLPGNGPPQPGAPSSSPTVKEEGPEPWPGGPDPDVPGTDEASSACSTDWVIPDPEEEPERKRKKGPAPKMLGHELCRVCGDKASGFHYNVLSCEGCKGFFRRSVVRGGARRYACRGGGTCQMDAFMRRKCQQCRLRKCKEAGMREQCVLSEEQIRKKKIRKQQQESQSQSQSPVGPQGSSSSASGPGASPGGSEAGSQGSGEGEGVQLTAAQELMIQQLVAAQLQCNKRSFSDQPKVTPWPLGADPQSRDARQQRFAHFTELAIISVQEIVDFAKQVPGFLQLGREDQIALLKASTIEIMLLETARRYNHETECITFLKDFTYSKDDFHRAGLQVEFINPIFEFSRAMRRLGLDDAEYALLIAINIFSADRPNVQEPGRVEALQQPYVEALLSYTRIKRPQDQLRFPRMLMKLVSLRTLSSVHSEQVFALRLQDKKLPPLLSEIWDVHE
It counts as functional, cell-based.

For test [13], the target named is T2, Beta-lactamase (Pseudomonas aeruginosa, UniProt Q79MP6). The test is described as follows: inhibition of IMP-1 beta-lactamase activity – biochemical, epi-absorbance, selectivity assay for VIM-2 inhibitor project, dose response (AID 1920).
T2 sequence (Q79MP6 whole entry): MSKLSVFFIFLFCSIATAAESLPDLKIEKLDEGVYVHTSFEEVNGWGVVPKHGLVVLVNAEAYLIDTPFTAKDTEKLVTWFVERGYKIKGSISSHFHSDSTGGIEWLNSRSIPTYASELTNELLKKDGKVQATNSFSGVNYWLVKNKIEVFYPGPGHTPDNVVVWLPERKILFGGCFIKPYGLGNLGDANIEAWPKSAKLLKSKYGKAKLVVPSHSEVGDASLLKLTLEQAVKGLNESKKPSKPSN
For test [14], the target named is T2, Beta-lactamase. The test is described as follows: […] counterscreen for selective VIM-2 inhibitors: dose response biochemical high throughput screening assay to identify inhibitors of IMP-1 metallo-beta-lactamase.
Test [15] has as its target Dual specificity tyrosine-phosphorylation-regulated kinase 1A (Rattus norvegicus, UniProt Q63470). It counts as biochemical, Homo sapiens.
In test [16] the target is Beta-lactamase (Salmonella choleraesuis (strain SC-B67), UniProt Q5J463). The test is described as follows: Epi-absorbance-based counterscreen for selective VIM-2 inhibitors: dose response biochemical high throughput screening assay to identify inhibitors of TEM-1 serine-beta-lactamase.
Sequence of Beta-lactamase (Salmonella choleraesuis (strain SC-B67), UniProt Q5J463) (Q5J463 whole entry, the tested form may be a part): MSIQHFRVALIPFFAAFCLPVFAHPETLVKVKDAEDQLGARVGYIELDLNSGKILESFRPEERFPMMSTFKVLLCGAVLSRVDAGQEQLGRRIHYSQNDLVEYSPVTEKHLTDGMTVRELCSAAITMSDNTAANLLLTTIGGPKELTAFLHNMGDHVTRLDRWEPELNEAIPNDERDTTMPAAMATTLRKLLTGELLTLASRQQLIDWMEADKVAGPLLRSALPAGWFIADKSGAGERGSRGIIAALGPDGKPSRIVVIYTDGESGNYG
Test [17] deals with Disintegrin and metalloproteinase domain-containing protein 17 (Homo sapiens, UniProt P78536). The test is described as follows: inhibition of ADAM17 substrate cleavage – biochemical, quenched FRET substrate, counter-screen for ADAM10 exosite inhibitor project, dose response (AID 743253).
Sequence of Disintegrin and metalloproteinase domain-containing protein 17 (P78536 whole entry, the tested form may be a part): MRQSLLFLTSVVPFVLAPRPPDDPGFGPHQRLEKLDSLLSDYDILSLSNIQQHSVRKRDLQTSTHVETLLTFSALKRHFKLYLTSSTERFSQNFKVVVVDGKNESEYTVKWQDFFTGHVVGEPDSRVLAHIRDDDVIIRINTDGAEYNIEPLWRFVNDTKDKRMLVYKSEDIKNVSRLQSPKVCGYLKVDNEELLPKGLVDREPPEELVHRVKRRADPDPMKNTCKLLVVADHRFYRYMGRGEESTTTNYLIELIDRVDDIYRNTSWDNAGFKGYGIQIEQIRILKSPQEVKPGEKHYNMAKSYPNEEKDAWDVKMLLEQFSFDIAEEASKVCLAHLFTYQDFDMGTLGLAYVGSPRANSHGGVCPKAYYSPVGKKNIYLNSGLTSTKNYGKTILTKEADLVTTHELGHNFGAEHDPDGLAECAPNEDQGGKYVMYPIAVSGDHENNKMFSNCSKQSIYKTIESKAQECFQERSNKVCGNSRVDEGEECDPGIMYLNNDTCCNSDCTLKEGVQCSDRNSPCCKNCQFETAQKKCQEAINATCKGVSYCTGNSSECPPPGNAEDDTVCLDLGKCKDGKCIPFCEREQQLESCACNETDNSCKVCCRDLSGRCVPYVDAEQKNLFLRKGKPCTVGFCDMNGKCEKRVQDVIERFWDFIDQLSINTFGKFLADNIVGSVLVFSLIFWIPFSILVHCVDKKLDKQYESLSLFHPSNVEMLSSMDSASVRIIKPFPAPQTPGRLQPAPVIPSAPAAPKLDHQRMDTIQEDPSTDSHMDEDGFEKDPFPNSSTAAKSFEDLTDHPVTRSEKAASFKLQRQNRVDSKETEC
The nature of test [18]: potency of ADAM10 substrate cleavage blockers – biochemical, QFRET, dose response (AID 743254).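 Also: ADAM10 enzyme with the DM2 quenched FRET peptide as substrate; EDANS fluorescence gain as the protease cuts the substrate; inhibitor potency against ADAM10 proteolytic activity.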
Test [19] has as its target Acyl-protein thioesterase 1 (Homo sapiens, UniProt O75608). The experiment in a line: Late stage assay provider results from the probe development effort to identify selective inhibitors of LYPLA1: fluorescence-based biochemical dose-response assay.
Test [20] is described as follows: A cytotoxicity screen of small molecule inhibitors of the PhoP region in Salmonella typhi identified in the primary screen. [Related pubchem assays: 1850, 1864, 1985 ]. Type of test: functional.
Test [21] addresses 1-phosphatidylinositol 4,5-bisphosphate phosphodiesterase beta-3 (Homo sapiens, UniProt Q01970). The experiment in a line: Fluorescence-based biochemical high throughput dose response assay to identify inhibitors of phospholipase C isozymes (PLC-B3).
For test [22], the target named is 1-phosphatidylinositol 4,5-bisphosphate phosphodiesterase gamma-1 (Homo sapiens, UniProt P19174). The test is described as follows: Counterscreen for inhibitors of phospholipase C isozymes (PLC-B3): Fluorescence-based biochemical high throughput dose response assay to identify inhibitors of phospholipase C isozymes (PLC-gamma1).
Sequence of 1-phosphatidylinositol 4,5-bisphosphate phosphodiesterase gamma-1 (P19174 whole entry): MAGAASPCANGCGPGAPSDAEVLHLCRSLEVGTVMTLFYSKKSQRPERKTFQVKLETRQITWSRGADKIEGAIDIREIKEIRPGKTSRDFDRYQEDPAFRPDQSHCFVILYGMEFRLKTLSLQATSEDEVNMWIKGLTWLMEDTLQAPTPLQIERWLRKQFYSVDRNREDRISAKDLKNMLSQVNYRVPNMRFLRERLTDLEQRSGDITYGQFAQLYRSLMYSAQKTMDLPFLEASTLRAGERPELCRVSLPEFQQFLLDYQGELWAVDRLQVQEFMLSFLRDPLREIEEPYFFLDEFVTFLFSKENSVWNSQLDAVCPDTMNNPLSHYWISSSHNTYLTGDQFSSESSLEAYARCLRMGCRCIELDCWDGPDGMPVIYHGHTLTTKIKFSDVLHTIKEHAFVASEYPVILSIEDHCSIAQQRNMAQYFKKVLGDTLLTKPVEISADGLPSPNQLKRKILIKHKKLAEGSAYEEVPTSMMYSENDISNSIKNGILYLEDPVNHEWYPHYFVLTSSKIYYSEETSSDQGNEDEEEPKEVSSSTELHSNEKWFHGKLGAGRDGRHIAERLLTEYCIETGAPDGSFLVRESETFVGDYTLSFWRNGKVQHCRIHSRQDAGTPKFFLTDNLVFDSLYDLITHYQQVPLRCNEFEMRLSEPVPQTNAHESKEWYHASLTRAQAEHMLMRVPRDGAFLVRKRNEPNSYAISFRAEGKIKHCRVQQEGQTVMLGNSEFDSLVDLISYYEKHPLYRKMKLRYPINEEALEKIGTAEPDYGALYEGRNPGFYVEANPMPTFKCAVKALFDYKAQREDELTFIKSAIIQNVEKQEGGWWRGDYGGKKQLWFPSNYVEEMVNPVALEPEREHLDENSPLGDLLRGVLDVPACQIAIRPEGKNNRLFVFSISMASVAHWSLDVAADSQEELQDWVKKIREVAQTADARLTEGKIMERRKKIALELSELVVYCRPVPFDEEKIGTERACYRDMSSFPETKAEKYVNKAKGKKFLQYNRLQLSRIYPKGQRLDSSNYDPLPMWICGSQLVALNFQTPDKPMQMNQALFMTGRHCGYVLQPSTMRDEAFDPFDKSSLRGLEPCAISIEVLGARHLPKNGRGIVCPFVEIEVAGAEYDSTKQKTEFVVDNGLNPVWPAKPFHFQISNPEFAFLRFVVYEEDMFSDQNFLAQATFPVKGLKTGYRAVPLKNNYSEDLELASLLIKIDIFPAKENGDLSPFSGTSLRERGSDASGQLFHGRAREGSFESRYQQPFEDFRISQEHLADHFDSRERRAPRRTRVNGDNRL
A short description of the next test: cells. Particulars: A549.
A short description of test [23]: blockers of FN fibrillogenesis by fibroblasts – AH1F cells, Alexa488-FN fluorescence, cherry-picks, dose response (AID 1035475). It counts as functional, cell-based.
Test [24] can be described thus: viability loss in A549 lung cancer cells – cell-based, cherry-picks, […], cytotoxicity control, dose response (AID 1053119). Type of test: functional.

Molecules are shown by their SMILES. Values joined by “and” are separate entries in the source; they are usually repeats but may differ in a detail not shown here. Equal entries are not always repeated. Active and inactive are the calls of the source.

Sequence of Nonstructural protein 1 (Q194T2 whole entry): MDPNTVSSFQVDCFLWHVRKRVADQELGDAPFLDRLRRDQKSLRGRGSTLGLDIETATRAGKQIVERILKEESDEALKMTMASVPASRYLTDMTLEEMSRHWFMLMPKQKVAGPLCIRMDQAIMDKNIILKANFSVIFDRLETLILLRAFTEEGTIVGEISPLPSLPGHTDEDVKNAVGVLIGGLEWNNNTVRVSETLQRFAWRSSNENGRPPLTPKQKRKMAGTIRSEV
Sequence of Albumin (P02769 whole entry): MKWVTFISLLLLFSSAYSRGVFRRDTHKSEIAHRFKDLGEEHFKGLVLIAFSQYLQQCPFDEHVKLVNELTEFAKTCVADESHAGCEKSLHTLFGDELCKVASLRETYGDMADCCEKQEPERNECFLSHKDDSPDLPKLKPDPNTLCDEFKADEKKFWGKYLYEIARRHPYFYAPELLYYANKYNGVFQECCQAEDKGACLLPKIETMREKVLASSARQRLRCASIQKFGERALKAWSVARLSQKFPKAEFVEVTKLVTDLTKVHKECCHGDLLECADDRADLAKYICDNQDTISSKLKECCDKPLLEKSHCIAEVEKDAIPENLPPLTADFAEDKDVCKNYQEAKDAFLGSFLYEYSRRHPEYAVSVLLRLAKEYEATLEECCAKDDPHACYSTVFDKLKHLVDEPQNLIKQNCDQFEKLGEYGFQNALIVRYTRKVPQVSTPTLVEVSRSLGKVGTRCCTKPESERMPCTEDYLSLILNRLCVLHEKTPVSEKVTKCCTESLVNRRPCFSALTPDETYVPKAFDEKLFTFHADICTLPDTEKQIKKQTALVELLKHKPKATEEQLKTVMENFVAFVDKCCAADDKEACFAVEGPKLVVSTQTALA
Sequence of 1-phosphatidylinositol 4,5-bisphosphate phosphodiesterase beta-3 (Q01970 whole entry): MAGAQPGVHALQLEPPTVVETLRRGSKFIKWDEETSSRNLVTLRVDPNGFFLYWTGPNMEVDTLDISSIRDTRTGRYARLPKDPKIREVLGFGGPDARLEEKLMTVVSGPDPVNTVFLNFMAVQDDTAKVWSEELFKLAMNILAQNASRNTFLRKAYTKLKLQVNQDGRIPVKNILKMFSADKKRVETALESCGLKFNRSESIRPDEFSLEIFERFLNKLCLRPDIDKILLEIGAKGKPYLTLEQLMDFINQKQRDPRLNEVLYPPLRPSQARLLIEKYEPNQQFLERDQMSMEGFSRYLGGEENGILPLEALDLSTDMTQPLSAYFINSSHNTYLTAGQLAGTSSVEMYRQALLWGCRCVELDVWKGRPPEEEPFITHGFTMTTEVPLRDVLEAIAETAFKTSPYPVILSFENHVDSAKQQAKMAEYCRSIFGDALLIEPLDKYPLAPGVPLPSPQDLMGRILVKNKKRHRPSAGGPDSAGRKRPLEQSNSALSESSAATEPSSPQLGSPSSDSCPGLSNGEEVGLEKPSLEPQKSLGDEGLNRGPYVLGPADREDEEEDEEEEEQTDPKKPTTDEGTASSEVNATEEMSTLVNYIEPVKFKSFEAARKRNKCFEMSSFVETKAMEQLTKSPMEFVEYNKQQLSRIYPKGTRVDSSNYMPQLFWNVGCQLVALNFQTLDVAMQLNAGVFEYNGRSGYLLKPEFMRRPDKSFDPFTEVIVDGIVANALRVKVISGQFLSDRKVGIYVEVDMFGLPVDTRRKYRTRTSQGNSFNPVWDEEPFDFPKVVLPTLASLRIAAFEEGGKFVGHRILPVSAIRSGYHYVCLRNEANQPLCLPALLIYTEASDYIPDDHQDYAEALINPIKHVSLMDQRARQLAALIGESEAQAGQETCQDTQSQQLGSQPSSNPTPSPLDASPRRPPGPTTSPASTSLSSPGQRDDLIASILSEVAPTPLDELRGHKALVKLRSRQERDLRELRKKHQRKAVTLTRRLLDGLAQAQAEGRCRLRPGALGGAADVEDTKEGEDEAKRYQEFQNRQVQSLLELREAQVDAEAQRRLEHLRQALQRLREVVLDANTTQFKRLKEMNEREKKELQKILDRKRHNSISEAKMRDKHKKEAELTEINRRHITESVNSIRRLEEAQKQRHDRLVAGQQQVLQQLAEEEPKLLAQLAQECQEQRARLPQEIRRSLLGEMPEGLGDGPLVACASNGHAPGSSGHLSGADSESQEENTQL
Sequence of Acyl-protein thioesterase 1 (O75608 whole entry): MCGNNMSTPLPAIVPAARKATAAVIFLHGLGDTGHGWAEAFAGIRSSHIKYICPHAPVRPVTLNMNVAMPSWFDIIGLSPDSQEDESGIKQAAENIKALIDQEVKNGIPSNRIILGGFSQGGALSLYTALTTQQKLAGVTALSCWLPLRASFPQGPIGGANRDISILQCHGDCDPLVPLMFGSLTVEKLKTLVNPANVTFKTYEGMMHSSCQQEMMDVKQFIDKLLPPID

The AC50 is the concentration at which the activity in the assay is half-maximal. As for `CC(=O)Nc1ccc(NC(=O)CN(c2ccc(C34CC5CC(CC(C5)C3)C4)cc2)S(C)(=O)=O)cc1`, the AC50 in test [1] is 5.78 µM (active); in test [2], 57.7 µM (active); in test [3], 50.4 µM (active); in test [4] it was 7.68 µM (active) and 9 µM (active); in test [5], > 70 µM (inactive); in test [6], 2.87 µM (active).

One may read the IC50 as the concentration at which inhibition is half-maximal. For `CNc1ccccc1C(C)(C)c1cc(-c2cccc(OC)c2)no1`, the AC50 was 1.92 µM (active) in [7], 56.8 µM (active) in test [9], 9.49 µM (active) in test [10] and 1.82 µM (active) in test [11]. Further, the IC50 in test [8] was > 80 µM (inactive).

In the case of `O=C(NC(=S)NNC(=O)c1ccccc1O)c1cccnc1`, the IC50 at Albumin is > 94.1 µM (inactive); on Nonstructural protein 1, 7.11 µM (active).

In general, EC50 refers to the concentration that produces a half-maximal response. On to `Cn1c(O)c(N=NC(=O)c2ccco2)c2ccccc21`, for which, in test [12], the EC50 is > 67.5 µM (inactive).

Take `O=C(O)c1[nH]c2ccc(Br)cc2c1CCN1C(=O)c2cccc([N+](=O)[O-])c2C1=O`: the IC50 at Beta-lactamase [13], on Beta-lactamase [14] and on Beta-lactamase [16] was > 59.6 µM (inactive) in each case. The AC50 in test [15] was 23.1 µM (active).

In the case of `COc1ccc(-c2[nH]nc(C)c2-c2cnn(-c3ccccc3)c2)c(O)c1C`, the IC50 in [17] was > 69.5 µM (inactive); in [18], > 7.72 µM (active).

`COc1ccc(N2CCN(C(=O)c3cc4c(s3)-c3ccccc3S(=O)(=O)C4)CC2)cc1`: the IC50 in test [19] is > 10 µM (inactive). Besides, the EC50 in test [20] is > 50 µM (active).

Take `COc1cccc(C(=O)Nc2ccc(-n3nncc3C(C)(C)C)cc2)c1`: the IC50 in [21] and in test [22] was > 122 µM (inactive) throughout.

`Fc1ccc(-c2nc3ccccn3c2NCc2ccc3c(c2)OCO3)cc1`: in “cells”, the AC50 was > 52 µM (inactive).

`O=C(NCc1ccccc1)c1ccc(-c2cn[nH]c2)c2ccoc12`: the AC50 in test [23] is 142 nM (active); in [24], > 52 µM (inactive).
